Assay results from patent US10550111B2, “Pyrimidine urea compound containing isoxazolines and use thereof” (SHENYANG SINOCHEM AGROCHEMICALS R&D CO., LTD, priority 2014, dated 2020).

How the values were obtained:
Format in all cases: in vivo
[1] = system: Setaria glauca (L.) Beauv.; assay: Bioassay of herbicidal activity in greenhouse (further screening)
Summary of the method: (§1)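 Visual growth inhibition rating (0 no effect to 100 all weeds dead or not emerged) after track-sprayer application (500 L/hm²) of emulsifiable concentrate. Treatments either pre-emergence, 24 h after sowing, or post-emergence at 2–3-leaf grass and 2–4-leaf broad-leaf stage, greenhouse-grown.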

[2] = system: Abutilon theophrasti Medic.; assay: as above
Summary of the method: as §1

Zinnia elegans Jacq. = assay: as above
Summary of the method: as §1

[3] = system: Echinochloa crus-galli (L.) Beauv.; assay: as above
Summary of the method: as §1

[4] = system: broad-leaf weeds and grass weeds; assay: General screening of herbicidal activity in greenhouse; conditions: 1000 g a.i./hm^2
Summary of the method: as §1

SMILES: CC(=O)OCCOC(=O)C1(C)CC(c2cc(-n3c(=O)cc(C(F)(F)F)n(C)c3=O)c(F)cc2Cl)=NO1 (stereo not drawn) [Compound 17]
- Growth inhibition rate, Post-emergence treatment, Setaria glauca (L.) Beauv. ([1]; dose 7.5 g a.i./hm^2): 55%
- Growth inhibition rate, Post-emergence treatment, Setaria glauca (L.) Beauv. ([1]; dose 15 g a.i./hm^2): 60%
- Growth inhibition rate, Post-emergence treatment, Setaria glauca (L.) Beauv. ([1]; dose 30.0 g a.i./hm^2): 100%
- Growth inhibition rate, Post-emergence treatment, Setaria glauca (L.) Beauv. ([1]; dose 60.0 g a.i./hm^2): 100%
- Growth inhibition rate, Post-emergence treatment, Setaria glauca (L.) Beauv. ([1]; dose 120.0 g a.i./hm^2): 100%
- Growth inhibition rate, Post-emergence treatment, Setaria glauca (L.) Beauv. ([1]; dose 600 g a.i./hm^2): 100%
- Growth inhibition rate, Pre-emergence treatment, Setaria glauca (L.) Beauv. ([1]; dose 600 g a.i./hm^2): 85%
- Growth inhibition rate, Post-emergence treatment, Abutilon theophrasti Medic. ([2]; dose 7.5 g a.i./hm^2): 95%
- Growth inhibition rate, Post-emergence treatment, Abutilon theophrasti Medic. ([2]; dose 15 g a.i./hm^2): 98%
- Growth inhibition rate, Post-emergence treatment, Abutilon theophrasti Medic. ([2]; dose 30.0 g a.i./hm^2): 100%
- Growth inhibition rate, Post-emergence treatment, Abutilon theophrasti Medic. ([2]; dose 60.0 g a.i./hm^2): 100%
- Growth inhibition rate, Post-emergence treatment, Abutilon theophrasti Medic. ([2]; dose 120.0 g a.i./hm^2): 100%
- Growth inhibition rate, Post-emergence treatment, Abutilon theophrasti Medic. ([2]; dose 600 g a.i./hm^2): 100%
- Growth inhibition rate, Pre-emergence treatment, Abutilon theophrasti Medic. ([2]; dose 600 g a.i./hm^2): 90%
- Growth inhibition rate, Post-emergence treatment, Zinnia elegans Jacq. (Zinnia elegans Jacq.; dose 7.5 g a.i./hm^2): 45%
- Growth inhibition rate, Post-emergence treatment, Zinnia elegans Jacq. (Zinnia elegans Jacq.; dose 15 g a.i./hm^2): 55%
- Growth inhibition rate, Post-emergence treatment, Zinnia elegans Jacq. (Zinnia elegans Jacq.; dose 30.0 g a.i./hm^2): 65%
- Growth inhibition rate, Post-emergence treatment, Zinnia elegans Jacq. (Zinnia elegans Jacq.; dose 60.0 g a.i./hm^2): 90%
- Growth inhibition rate, Post-emergence treatment, Zinnia elegans Jacq. (Zinnia elegans Jacq.; dose 120.0 g a.i./hm^2): 100%
- Growth inhibition rate, Post-emergence treatment, Zinnia elegans Jacq. (Zinnia elegans Jacq.; dose 600 g a.i./hm^2): 100%
- Growth inhibition rate, Pre-emergence treatment, Zinnia elegans Jacq. (Zinnia elegans Jacq.; dose 600 g a.i./hm^2): 90%
- Growth inhibition rate, Post-emergence treatment, Echinochloa crus-galli (L.) Beauv. ([3]; dose 7.5 g a.i./hm^2): 30%
- Growth inhibition rate, Post-emergence treatment, Echinochloa crus-galli (L.) Beauv. ([3]; dose 15 g a.i./hm^2): 60%
- Growth inhibition rate, Post-emergence treatment, Echinochloa crus-galli (L.) Beauv. ([3]; dose 30.0 g a.i./hm^2): 100%
- Growth inhibition rate, Post-emergence treatment, Echinochloa crus-galli (L.) Beauv. ([3]; dose 60.0 g a.i./hm^2): 100%
- Growth inhibition rate, Post-emergence treatment, Echinochloa crus-galli (L.) Beauv. ([3]; dose 120.0 g a.i./hm^2): 100%
- Growth inhibition rate, Post-emergence treatment, Echinochloa crus-galli (L.) Beauv. ([3]; dose 600 g a.i./hm^2): 100%
- Growth inhibition rate, Pre-emergence treatment, Echinochloa crus-galli (L.) Beauv. ([3]; dose 600 g a.i./hm^2): 95%
- pre-emergence and post-emergence herbicidal activity against broad-leaf weeds and grass weeds [4]: good

SMILES: Cn1c(C(F)(F)F)cc(=O)n(-c2cc(C3=NOC(C)(COC(=O)CCc4ccccc4)C3)c(Cl)cc2F)c1=O (stereo not drawn) [Compound 55]
- Growth inhibition rate, Post-emergence treatment, Setaria glauca (L.) Beauv. ([1]; dose 37.5 g a.i./hm^2): 30%
- Growth inhibition rate, Post-emergence treatment, Setaria glauca (L.) Beauv. ([1]; dose 150 g a.i./hm^2): 75%
- Growth inhibition rate, Post-emergence treatment, Setaria glauca (L.) Beauv. ([1]; dose 600 g a.i./hm^2): 90%
- Growth inhibition rate, Pre-emergence treatment, Setaria glauca (L.) Beauv. ([1]; dose 37.5 g a.i./hm^2): 0%
- Growth inhibition rate, Pre-emergence treatment, Setaria glauca (L.) Beauv. ([1]; dose 150 g a.i./hm^2): 5%
- Growth inhibition rate, Pre-emergence treatment, Setaria glauca (L.) Beauv. ([1]; dose 600 g a.i./hm^2): 80%
- Growth inhibition rate, Post-emergence treatment, Abutilon theophrasti Medic. ([2]; dose 37.5 g a.i./hm^2): 100%
- Growth inhibition rate, Post-emergence treatment, Abutilon theophrasti Medic. ([2]; dose 150 g a.i./hm^2): 100%
- Growth inhibition rate, Post-emergence treatment, Abutilon theophrasti Medic. ([2]; dose 600 g a.i./hm^2): 100%
- Growth inhibition rate, Pre-emergence treatment, Abutilon theophrasti Medic. ([2]; dose 37.5 g a.i./hm^2): 5%
- Growth inhibition rate, Pre-emergence treatment, Abutilon theophrasti Medic. ([2]; dose 150 g a.i./hm^2): 20%
- Growth inhibition rate, Pre-emergence treatment, Abutilon theophrasti Medic. ([2]; dose 600 g a.i./hm^2): 45%
- Growth inhibition rate, Post-emergence treatment, Zinnia elegans Jacq. (Zinnia elegans Jacq.; dose 37.5 g a.i./hm^2): 100%
- Growth inhibition rate, Post-emergence treatment, Zinnia elegans Jacq. (Zinnia elegans Jacq.; dose 150 g a.i./hm^2): 100%
- Growth inhibition rate, Post-emergence treatment, Zinnia elegans Jacq. (Zinnia elegans Jacq.; dose 600 g a.i./hm^2): 100%
- Growth inhibition rate, Pre-emergence treatment, Zinnia elegans Jacq. (Zinnia elegans Jacq.; dose 37.5 g a.i./hm^2): 0%
- Growth inhibition rate, Pre-emergence treatment, Zinnia elegans Jacq. (Zinnia elegans Jacq.; dose 150 g a.i./hm^2): 5%
- Growth inhibition rate, Pre-emergence treatment, Zinnia elegans Jacq. (Zinnia elegans Jacq.; dose 600 g a.i./hm^2): 80%
- Growth inhibition rate, Post-emergence treatment, Echinochloa crus-galli (L.) Beauv. ([3]; dose 37.5 g a.i./hm^2): 20%
- Growth inhibition rate, Post-emergence treatment, Echinochloa crus-galli (L.) Beauv. ([3]; dose 150 g a.i./hm^2): 35%
- Growth inhibition rate, Post-emergence treatment, Echinochloa crus-galli (L.) Beauv. ([3]; dose 600 g a.i./hm^2): 45%
- Growth inhibition rate, Pre-emergence treatment, Echinochloa crus-galli (L.) Beauv. ([3]; dose 37.5 g a.i./hm^2): 0%
- Growth inhibition rate, Pre-emergence treatment, Echinochloa crus-galli (L.) Beauv. ([3]; dose 150 g a.i./hm^2): 20%
- Growth inhibition rate, Pre-emergence treatment, Echinochloa crus-galli (L.) Beauv. ([3]; dose 600 g a.i./hm^2): 40%
- pre-emergence and post-emergence herbicidal activity against broad-leaf weeds and grass weeds [4]: good

SMILES: COCCOC(=O)C1(C)CC(c2cc(-n3c(=O)cc(C(F)(F)F)n(C)c3=O)c(F)cc2Cl)=NO1 (stereo not drawn) [Compound 16]
- Growth inhibition rate, Post-emergence treatment, Setaria glauca (L.) Beauv. ([1]; dose 7.5 g a.i./hm^2): 75%
- Growth inhibition rate, Post-emergence treatment, Setaria glauca (L.) Beauv. ([1]; dose 15 g a.i./hm^2): 98%
- Growth inhibition rate, Post-emergence treatment, Setaria glauca (L.) Beauv. ([1]; dose 30.0 g a.i./hm^2): 100%
- Growth inhibition rate, Post-emergence treatment, Setaria glauca (L.) Beauv. ([1]; dose 60.0 g a.i./hm^2): 100%
- Growth inhibition rate, Post-emergence treatment, Setaria glauca (L.) Beauv. ([1]; dose 120.0 g a.i./hm^2): 100%
- Growth inhibition rate, Post-emergence treatment, Abutilon theophrasti Medic. ([2]; dose 7.5 g a.i./hm^2): 75%
- Growth inhibition rate, Post-emergence treatment, Abutilon theophrasti Medic. ([2]; dose 15 g a.i./hm^2): 98%
- Growth inhibition rate, Post-emergence treatment, Abutilon theophrasti Medic. ([2]; dose 30.0 g a.i./hm^2): 100%
- Growth inhibition rate, Post-emergence treatment, Abutilon theophrasti Medic. ([2]; dose 60.0 g a.i./hm^2): 100%
- Growth inhibition rate, Post-emergence treatment, Abutilon theophrasti Medic. ([2]; dose 120.0 g a.i./hm^2): 100%
- Growth inhibition rate, Post-emergence treatment, Zinnia elegans Jacq. (Zinnia elegans Jacq.; dose 7.5 g a.i./hm^2): 98%
- Growth inhibition rate, Post-emergence treatment, Zinnia elegans Jacq. (Zinnia elegans Jacq.; dose 15 g a.i./hm^2): 100%
- Growth inhibition rate, Post-emergence treatment, Zinnia elegans Jacq. (Zinnia elegans Jacq.; dose 30.0 g a.i./hm^2): 100%
- Growth inhibition rate, Post-emergence treatment, Zinnia elegans Jacq. (Zinnia elegans Jacq.; dose 60.0 g a.i./hm^2): 100%
- Growth inhibition rate, Post-emergence treatment, Zinnia elegans Jacq. (Zinnia elegans Jacq.; dose 120.0 g a.i./hm^2): 100%
- Growth inhibition rate, Post-emergence treatment, Echinochloa crus-galli (L.) Beauv. ([3]; dose 7.5 g a.i./hm^2): 50%
- Growth inhibition rate, Post-emergence treatment, Echinochloa crus-galli (L.) Beauv. ([3]; dose 15 g a.i./hm^2): 80%
- Growth inhibition rate, Post-emergence treatment, Echinochloa crus-galli (L.) Beauv. ([3]; dose 30.0 g a.i./hm^2): 100%
- Growth inhibition rate, Post-emergence treatment, Echinochloa crus-galli (L.) Beauv. ([3]; dose 60.0 g a.i./hm^2): 100%
- Growth inhibition rate, Post-emergence treatment, Echinochloa crus-galli (L.) Beauv. ([3]; dose 120.0 g a.i./hm^2): 100%
- pre-emergence and post-emergence herbicidal activity against broad-leaf weeds and grass weeds [4]: good
